Earlier results in patent US8178105B2, “Composition containing Agaricus blazei Murill” (Kyowa Hakko Bio Co., Ltd., priority 2006, dated 2012).

System: Sarcoma-180
Conditions: oral administration; Sarcoma-180 transplanted mouse; non-patent document 5

## N=C(N)NCCC[C@H](N)C(=O)O [arginine]
  antitumor effect and life extension (in words): marked antitumor effect and life extension
